Eight compounds from PubChem BioAssay (NCI) can be followed below.

Test systems include SR leukemia; SNB-19 CNS; SK-MEL-28 melanoma; U251 CNS; MCF7 breast; IGROV1 ovarian; T-47D breast; COLO 205 colon; MDA-MB-231 breast; ACHN renal; NCI-H23 lung; NCI-H460 lung; NCI-H226 lung; OVCAR-4 ovarian; SK-OV-3 ovarian; TK-10 renal; DU-145 prostate; UO-31 renal; BT-549 breast; A498 renal.
Holding throughout (assay): NCI-60 cell line screen, 48 h

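Interpolation was linear, between the two tested concentrations surrounding the appropriate level; five concentrations were tested over 48 hours in 96-well plates. At the TGI there is no net growth.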 Where only a bound is given, the exact number is not on record here.

Turning to `COC(=O)C1(C(=O)OC)C/C(C)=C(/C)SCCCS1`, the TGI in the experiment on SR leukemia, in the experiment with SNB-19 CNS, with SK-MEL-28 melanoma, in the experiment with U251 CNS, in the experiment on MCF7 breast and in the experiment on IGROV1 ovarian was above 100 µM each time. Moreover, the TGI with T-47D breast, in the experiment on COLO 205 colon, in the experiment with MDA-MB-231 breast, in the experiment on ACHN renal, with NCI-H23 lung and in the experiment on NCI-H460 lung was above 100 µM in each case. The TGI in the experiment on NCI-H226 lung, with OVCAR-4 ovarian, in the experiment with SK-OV-3 ovarian, in the experiment with TK-10 renal, in the experiment on DU-145 prostate and in the experiment on UO-31 renal was above 100 µM throughout.

As for `O=C1/C(=C/c2cccc(Br)c2)Cc2ccccc21`, the TGI in the experiment on SR leukemia, in the experiment on SNB-19 CNS, in the experiment with SK-MEL-28 melanoma, in the experiment with U251 CNS, in the experiment on MCF7 breast and in the experiment with IGROV1 ovarian was above 100 µM in each case. The TGI was 89.7 µM in the experiment with COLO 205 colon; above 100 µM with BT-549 breast; above 100 µM in the experiment with MDA-MB-231 breast; above 100 µM in the experiment on ACHN renal; above 100 µM with NCI-H23 lung; above 100 µM in the experiment on NCI-H460 lung. Further, the TGI in the experiment with NCI-H226 lung, in the experiment with OVCAR-4 ovarian, in the experiment on SK-OV-3 ovarian, in the experiment with TK-10 renal, in the experiment on DU-145 prostate and with UO-31 renal was above 100 µM in each case.

Take `CCCCCCCCCCCCC/C=C/[C@@H](O)[C@H](COC1OC(CO)C(OC2OC(CO)C(O)C(OC3(C(=O)O)CC(O)C(NC(C)=O)C(C(O)C(O)CO)O3)C2O)C(O)C1O)N=[N+]=[N-]` (some centres not stated): the TGI in the experiment on SNB-19 CNS was 93.7 µM; in the experiment with SK-MEL-28 melanoma, 60.5 µM; in the experiment on U251 CNS, 36.1 µM; in the experiment with MCF7 breast it was above 100 µM; in the experiment on IGROV1 ovarian it was 85.5 µM; with T-47D breast it was above 100 µM. Besides, the TGI is 33.9 µM in the experiment on COLO 205 colon; above 100 µM in the experiment on MDA-MB-231 breast; above 100 µM in the experiment on ACHN renal; above 100 µM in the experiment on NCI-H23 lung; above 100 µM with NCI-H460 lung; above 100 µM with A498 renal. The TGI is 45.9 µM in the experiment on NCI-H226 lung; above 100 µM in the experiment on OVCAR-4 ovarian; 78.8 µM in the experiment with SK-OV-3 ovarian; above 100 µM with TK-10 renal; above 100 µM with DU-145 prostate; 44.1 µM in the experiment with UO-31 renal.

For the compound `CN1C(=O)CSC1=S`, the TGI in the experiment on SR leukemia, in the experiment with SK-MEL-28 melanoma, with U251 CNS, with IGROV1 ovarian, in the experiment on COLO 205 colon and in the experiment with ACHN renal was above 100 µM throughout. Further, the TGI with NCI-H23 lung, with NCI-H460 lung, with A498 renal, in the experiment with NCI-H226 lung, with OVCAR-4 ovarian and in the experiment with SK-OV-3 ovarian was above 100 µM in each case. Moreover, the TGI in the experiment with TK-10 renal and in the experiment with UO-31 renal was above 100 µM in each case.

Consider `COC1=CC2C(c3cc4ccccc4n3S(=O)(=O)c3ccccc3)CC1CN2C(=O)OCc1ccccc1` (configuration not stated), for which the TGI with U251 CNS was above 100 µM; in the experiment on MCF7 breast, above 100 µM; with IGROV1 ovarian it was above 100 µM; with COLO 205 colon, 31.2 µM; with BT-549 breast, 75.1 µM; in the experiment on MDA-MB-231 breast, 58.7 µM. Also, the TGI with ACHN renal is above 100 µM; in the experiment with NCI-H23 lung it was above 100 µM; in the experiment on NCI-H460 lung, above 100 µM; in the experiment on NCI-H226 lung, above 100 µM; in the experiment on OVCAR-4 ovarian it was above 100 µM; in the experiment on SK-OV-3 ovarian, 98.1 µM. The TGI in the experiment with TK-10 renal, in the experiment on DU-145 prostate and in the experiment with UO-31 renal was above 100 µM in each case.

As for `CNC(=S)N=Nc1c(O)n(CN2CCOCC2)c2ccc([N+](=O)[O-])cc12`, the TGI in the experiment with SR leukemia was above 100 µM; with SNB-19 CNS, 61.2 µM; with SK-MEL-28 melanoma, 54.8 µM; in the experiment with U251 CNS, 37.6 µM; in the experiment with MCF7 breast, 42.9 µM; in the experiment with T-47D breast, 38.9 µM. For the same compound, the TGI with COLO 205 colon was 91.3 µM; in the experiment with MDA-MB-231 breast, 25 µM; in the experiment on ACHN renal, 35.3 µM; in the experiment with NCI-H23 lung, 32.2 µM; in the experiment on NCI-H460 lung, 75 µM; with A498 renal, 66.8 µM. Moreover, the TGI in the experiment on NCI-H226 lung stood at 36.3 µM; in the experiment with OVCAR-4 ovarian it was 31.2 µM; in the experiment with SK-OV-3 ovarian, 31.9 µM; in the experiment with TK-10 renal it was 29.8 µM; in the experiment with DU-145 prostate it was 27.3 µM; in the experiment on UO-31 renal, 14.2 µM.

For `CC(CO)CCNc1ncnc2c1ncn2CCC(=O)OC(C)(C)C` (configuration not stated), the TGI in the experiment on SR leukemia, with SNB-19 CNS, with SK-MEL-28 melanoma, with MCF7 breast, in the experiment with IGROV1 ovarian and with T-47D breast was above 100 µM each time. Besides, the TGI with COLO 205 colon, in the experiment on MDA-MB-231 breast, with ACHN renal, in the experiment on NCI-H23 lung, with NCI-H460 lung and in the experiment with A498 renal was above 100 µM each time. The TGI with NCI-H226 lung, in the experiment with OVCAR-4 ovarian, in the experiment with SK-OV-3 ovarian, with TK-10 renal, in the experiment on DU-145 prostate and with UO-31 renal was above 100 µM throughout.

With `COc1ccc(-c2csc(Cc3nc4ccccc4c(=O)n3-c3ccc(Cl)cc3)n2)cc1`, the TGI in the experiment on SNB-19 CNS is 77.7 µM; with SK-MEL-28 melanoma, 59.5 µM; with U251 CNS, above 100 µM; in the experiment with MCF7 breast, above 100 µM; in the experiment on IGROV1 ovarian, above 100 µM; with COLO 205 colon it was above 100 µM. Further, the TGI in the experiment on BT-549 breast, in the experiment with MDA-MB-231 breast, with ACHN renal, in the experiment with NCI-H23 lung, with NCI-H460 lung and in the experiment with A498 renal was above 100 µM in each case. The TGI in the experiment on NCI-H226 lung, in the experiment with OVCAR-4 ovarian, with SK-OV-3 ovarian, in the experiment with TK-10 renal, in the experiment on DU-145 prostate and in the experiment on UO-31 renal was above 100 µM throughout.
